The NIST ThermoML archive (doi:10.1021/je050413l)
Several values for one entry are separate records, joined by “and”; a condition that tells them apart may be missing. Equal values may be shown once.

Assays:
[1] = 303.15 K, Liquid; for speed of sound / viscosity: 101 kPa; for mass density: 101.33 kPa, Pycnometric method
[2] = φn = volume fraction of the nth substance listed; conditions: 303.15 K, 101 kPa, Liquid
[3] = xn = mol fraction of the nth substance listed; conditions: 303.15 K, 101 kPa, Liquid, Direct dilatometry

Cc1ccccc1Cl [2-chlorotoluene]
[1]
Conditions | mass density [kg/m3] | speed of sound [m/s] | viscosity [mPa·s]
– | 1072.77 | 1284 | 0.887

Cc1ccccc1Cl [2-chlorotoluene] + CC(=O)c1ccccc1
[2], φ2 = 0
Conditions | speed of sound [m/s] | viscosity [mPa·s]
– | 1284 | 0.887

Cc1ccccc1[N+](=O)[O-] [2-nitrotoluene]
[1]
Conditions | mass density [kg/m3] | viscosity [mPa·s]
– | 1153.26 | 1.911

Cc1ccccc1[N+](=O)[O-] [2-nitrotoluene] + CC(=O)c1ccccc1
Conditions | excess molar volume [m3/mol] | speed of sound [m/s] | viscosity [mPa·s]
[2], φ2 = 0 | – | – | 1.911
[2], φ2 = 0.0805 | – | 2017 | 1.91
[2], φ2 = 0.1011 | – | 1997 | 1.903
[2], φ2 = 0.2132 | – | 1889 | 1.857
[2], φ2 = 0.3245 | – | 1803 | 1.817
[2], φ2 = 0.4197 | – | 1737 | 1.781
[2], φ2 = 0.5086 | – | 1681 | 1.747
[2], φ2 = 0.6196 | – | 1622 | 1.701
[2], φ2 = 0.7297 | – | 1568 | 1.652
[2], φ2 = 0.7911 | – | 1541 | 1.624
[2], φ2 = 0.8704 | – | 1508 | 1.582
[3], x2 = 0.0812 | 1.1e-08 | – | –
[3], x2 = 0.1019 | 1.5e-08 | – | –
[3], x2 = 0.2147 | 2.4e-08 | – | –
[3], x2 = 0.3265 | 3.3e-08 | – | –
[3], x2 = 0.4219 | 3.9e-08 | – | –
[3], x2 = 0.5109 | 4.2e-08 | – | –
[3], x2 = 0.6217 | 3.7e-08 | – | –
[3], x2 = 0.7315 | 2.6e-08 | – | –
[3], x2 = 0.7926 | 2e-08 | – | –
[3], x2 = 0.8714 | 1.1e-08 | – | –

Cc1cccc(Cl)c1 [3-chlorotoluene]
[1]
Conditions | mass density [kg/m3] | speed of sound [m/s] | viscosity [mPa·s]
– | 1065.22 | 1280 | 0.782

Cc1cccc(Cl)c1 [3-chlorotoluene] + CC(=O)c1ccccc1
Conditions | excess molar volume, [3] [m3/mol] | speed of sound, [2] [m/s] | viscosity, [2] [mPa·s]
x2 = 0.0524 | 1e-08 | – | –
x2 = 0.103 | 1.5e-08 | – | –
x2 = 0.2141 | 2.3e-08 | – | –
x2 = 0.3119 | 2.9e-08 | – | –
x2 = 0.4266 | 3.3e-08 | – | –
x2 = 0.5009 | 3.4e-08 | – | –
x2 = 0.6174 | 3.2e-08 | – | –
x2 = 0.705 | 2.8e-08 | – | –
x2 = 0.8519 | 1.5e-08 | – | –
x2 = 0.952 | 6e-09 | – | –
φ2 = 0 | – | 1280 | 0.782
φ2 = 0.052 | – | 1297 | 0.891
φ2 = 0.1022 | – | 1315 | 0.901
φ2 = 0.2127 | – | 1346 | 1.002
φ2 = 0.3101 | – | 1370 | 1.073
φ2 = 0.4246 | – | 1395 | 1.16
φ2 = 0.4988 | – | 1412 | 1.222
φ2 = 0.6154 | – | 1431 | 1.31
φ2 = 0.7033 | – | 1438 | 1.37
φ2 = 0.8508 | – | 1449 | 1.458
φ2 = 0.9516 | – | 1455 | 1.503

Cc1cccc([N+](=O)[O-])c1 [3-nitrotoluene]
[1]
Conditions | mass density [kg/m3] | viscosity [mPa·s]
– | 1147.62 | 1.775

Cc1cccc([N+](=O)[O-])c1 [3-nitrotoluene] + CC(=O)c1ccccc1
Conditions | excess molar volume [m3/mol] | speed of sound [m/s] | viscosity [mPa·s]
[2], φ2 = 0 | – | – | 1.775
[2], φ2 = 0.0972 | – | 1987 | 1.748
[2], φ2 = 0.116 | – | 1972 | 1.745
[2], φ2 = 0.2051 | – | 1892 | 1.731
[2], φ2 = 0.3085 | – | 1808 | 1.713
[2], φ2 = 0.4191 | – | 1737 | 1.694
[2], φ2 = 0.5383 | – | 1666 | 1.666
[2], φ2 = 0.6446 | – | 1608 | 1.64
[2], φ2 = 0.7076 | – | 1580 | 1.623
[2], φ2 = 0.7994 | – | 1539 | 1.594
[2], φ2 = 0.886 | – | 1503 | 1.564
[3], x2 = 0.0984 | 1.8e-08 | – | –
[3], x2 = 0.1174 | 2.1e-08 | – | –
[3], x2 = 0.2074 | 3e-08 | – | –
[3], x2 = 0.3115 | 3.9e-08 | – | –
[3], x2 = 0.4225 | 4.7e-08 | – | –
[3], x2 = 0.5417 | 5e-08 | – | –
[3], x2 = 0.6478 | 4.3e-08 | – | –
[3], x2 = 0.7105 | 3.5e-08 | – | –
[3], x2 = 0.8016 | 2.5e-08 | – | –
[3], x2 = 0.8874 | 1.4e-08 | – | –

Cc1ccc(Cl)cc1 [4-chlorotoluene]
[1]
Conditions | mass density [kg/m3] | speed of sound [m/s] | viscosity [mPa·s]
– | 1060.54 | 1271 | 0.9

Cc1ccc(Cl)cc1 [4-chlorotoluene] + CC(=O)c1ccccc1
Conditions | excess molar volume, [3] [m3/mol] | speed of sound, [2] [m/s] | viscosity, [2] [mPa·s]
x2 = 0.087 | 1.6e-08 | – | –
x2 = 0.1206 | 2e-08 | – | –
x2 = 0.2175 | 2.7e-08 | – | –
x2 = 0.3009 | 3.4e-08 | – | –
x2 = 0.4017 | 4.1e-08 | – | –
x2 = 0.5224 | 4.4e-08 | – | –
x2 = 0.6211 | 3.9e-08 | – | –
x2 = 0.7025 | 3.2e-08 | – | –
x2 = 0.8214 | 2.1e-08 | – | –
x2 = 0.8774 | 1.6e-08 | – | –
φ2 = 0 | – | 1271 | 0.9
φ2 = 0.0807 | – | 1304 | 0.903
φ2 = 0.1193 | – | 1314 | 1.011
φ2 = 0.2153 | – | 1343 | 1.058
φ2 = 0.2982 | – | 1371 | 1.118
φ2 = 0.3986 | – | 1406 | 1.198
φ2 = 0.5192 | – | 1419 | 1.286
φ2 = 0.6181 | – | 1430 | 1.352
φ2 = 0.6998 | – | 1440 | 1.4
φ2 = 0.8195 | – | 1448 | 1.469
φ2 = 0.876 | – | 1453 | 1.496

CC(=O)c1ccccc1 [acetophenone]
[1]
Conditions | mass density [kg/m3] | speed of sound | viscosity [mPa·s]
– | 1019.43 | 1460 m/s and 1466 m/s | 1.511

CC(=O)c1ccccc1 [acetophenone] + Cc1ccc(Cl)cc1
[2], φ1 = 1
Conditions | speed of sound [m/s] | viscosity [mPa·s]
– | 1460 | 1.511

CC(=O)c1ccccc1 [acetophenone] + Cc1cccc(Cl)c1
[2], φ1 = 1
Conditions | speed of sound [m/s] | viscosity [mPa·s]
– | 1460 | 1.511

CC(=O)c1ccccc1 [acetophenone] + Cc1cccc([N+](=O)[O-])c1
[2], φ1 = 1
Conditions | speed of sound [m/s] | viscosity [mPa·s]
– | 1466 | 1.511

CC(=O)c1ccccc1 [acetophenone] + Cc1ccccc1Cl
Conditions | excess molar volume, [3] [m3/mol] | speed of sound, [2] [m/s] | viscosity, [2] [mPa·s]
x1 = 0.0901 | 6e-09 | – | –
x1 = 0.151 | 9e-09 | – | –
x1 = 0.2271 | 1.3e-08 | – | –
x1 = 0.3205 | 1.6e-08 | – | –
x1 = 0.4021 | 1.8e-08 | – | –
x1 = 0.5219 | 2e-08 | – | –
x1 = 0.6224 | 2e-08 | – | –
x1 = 0.702 | 1.8e-08 | – | –
x1 = 0.8194 | 1.5e-08 | – | –
x1 = 0.9005 | 9e-09 | – | –
φ1 = 0.09 | – | 1310 | 0.901
φ1 = 0.1508 | – | 1326 | 0.949
φ1 = 0.2269 | – | 1345 | 0.999
φ1 = 0.3202 | – | 1368 | 1.066
φ1 = 0.4018 | – | 1387 | 1.123
φ1 = 0.5216 | – | 1409 | 1.225
φ1 = 0.6221 | – | 1423 | 1.305
φ1 = 0.7017 | – | 1432 | 1.41
φ1 = 0.8192 | – | 1448 | 1.465
φ1 = 0.9004 | – | 1451 | 1.502
φ1 = 1 | – | 1460 | 1.511

CC(=O)c1ccccc1 [acetophenone] + Cc1ccccc1[N+](=O)[O-]
[2], φ1 = 1
Conditions | speed of sound [m/s] | viscosity [mPa·s]
– | 1460 | 1.511
